Legend:
U937 cells = test: Cell anti-necroptosis activity assay (LPS + Z-VAD-FMK, CCK8); type: cell-based; conditions: Homo sapiens, U-937; PMA-differentiated U937, LPS 100 ng/ml + Z-VAD-FMK 20 μM, 24 h; read-out: EC50 of inhibition of necroptosis
Protocol: Materials: U937 cell line (human myeloid leukemia cells), RPMI 1640 medium (purchased from Gibco, USA), penicillin-streptomycin double antibody (purchased from Gibco, USA), fetal bovine serum (purchased from genetic, USA), tetradecanoylphorbol acetate (purchased from biyuntian Biotechnology Co., Ltd.), CCK8 cell proliferation detection kit (purchased from biyuntian Biotechnology Co., Ltd), Z-VAD-FMK (from APExBIO, USA) and LPS (from Sigma, USA).
U937 cells were cultured in RPMI 1640 containing 10% heat inactivated fetal bovine serum and 1% penicillin-streptomycin in a constant temperature cell incubator at 37° C. and 5% CO2, and subcultured every 1-2 days. Human monocytic cell line U937 cells could be induced to differentiate into mature monocytes/macrophages after stimulation with tetradecanoylphorbol acetate (PMA). The cells in the logarithmic growth phase were seeded in 96 well plates at a density of 4×10^4 cells/well and cultured. PMA 100 ng/ml was added for 24 h, and then the fresh medium was changed. The necroptosis model was constructed by stimulation of LPS and caspase inhibitor Z-VAD-FMK. In the experimental groups, LPS (100 ng/ml) was added for 1 hour, and then the solvent control (DMSO) or different concentrations of compounds to be tested (30 μM, 10 μM, 3 μM, 1 μM, 300 nM, 100 nM, 30 nM 7 concentrations in total) for 1 h, and then the experimental groups were treated with caspase inhibitor Z-VAD-FMK (20 μM). The cell viability was detected after 24 h of culture. The control groups were not treated with LPS, drugs and Z-VAD-FMK. No cells were added to the blank hole, only the culture medium. Each group is set with 4 parallel. CCK8 cell proliferation assay kit was used to detect the cell viability and survival rate, and the operation was carried out according to the kit instructions. The cell supernatant was added with 10 μL CCK8 detection reagent, and the cell absorbance (450 nm) was detected by a microplate reader after 0.5 h. Calculate the cell death rate (%)=(average absorbance of control well−average absorbance of experimental group)/(average absorbance of control well−average absorbance of the blank well)×100. Finally, the half effective concentration (EC50) of the drug was calculated by GraphPad Prism 7.0® software.

[1] = system: rat model of ischemic stroke (MCAO); test: Rat MCAO cerebral ischemia/reperfusion model of ischemic stroke; type: in vivo; conditions: tMCAO rats
Protocol: Animals: SPF-grade male Sprague Dawley (SD) rats (purchased from Beijing Weitonglihua Experimental Animal Technology Co., Ltd.). Rats were fed with a free diet, 12 h: 12 h circadian rhythm.
Material: 2,3,5-Triphenyltetrazolium chloride (purchased from Beijing Solebo Technology Co., Ltd.), N,N-Dimethylacetamide (purchased from Shanghai Aladdin Biochemical Technology Co., Ltd.), castor oil polyoxyethylene ether (purchased from Shanghai McLean Biochemical Technology Co., Ltd.), sodium chloride (purchased from Bioengineering (Shanghai) Co., Ltd.), isoflurane (purchased from Shenzhen ruiwode Life Technology Co., Ltd.), and Sodium dihydrogen phosphate (purchased from Sinopharm group), disodium hydrogen phosphate (purchased from Sinopharm group), paraformaldehyde (purchased from biotechnology (Shanghai) Co., Ltd.) and thread bolt (purchased from Beijing Xinong Technology Co., Ltd.).
Methods: A rat model of ischemic stroke was established by middle cerebral artery occlusion (MCAO) of cerebral ischemia/reperfusion: Healthy male SD rats (weighing 260±40 g) were anesthetized with 5% isoflurane and maintained with 1.5%-2% isoflurane. The rats were fixed in the supine position, and the right common carotid artery, internal carotid artery and external carotid artery were separated through the median neck incision and threaded for standby. The proximal end of the common carotid artery and the external carotid artery were ligated, and the internal carotid artery was clamped with an artery clamp. The suture plug was cut and inserted at about 0.5 cm from the bifurcation of the common carotid artery. The artery clamp was released, and the suture plug was delivered until the blood flow of the middle cerebral artery was blocked. After 60 minutes of ischemia, the suture plug was removed to restore blood flow. The rectal temperature was maintained at 37±0.5° C. during the operation. After 48 hours of ischemia/reperfusion, the neurological function was evaluated by modified neurological severity score (MNSs). The cerebral infarction volume was detected by TTC staining, and the brain water content was detected to evaluate the cerebral edema.

RIPK1 kinase = RIPK1 kinase (Homo sapiens (Human), UniProt Q13546); test: RIPK1 kinase inhibitory assay (ADP-Glo); type: biochemical; conditions: for inhibition at 10 µM: 10 μM compound, read-out: Inhibition rate of RIPK1 at 10 μM (%)
Protocol: Materials and Instruments: ADP-Glo kinase kit (purchased from Promega), RIPK1 GST-Th-Tag (purchased from Bps Bioscience), MBP substrate (purchased from Millipore), nunc 384-well plate, ATP fluorescence analyzer Paradigm detection platform (purchased from Beckman coulter)
The compounds were diluted in DMSO and configured into a solution with a final concentration of 10 mM; Dilute RIP1 kinase from 140 ng/μL to 20 ng/μL for use. Dilute 10 mM of ATP to 100 μM for later use; Dilute 5 mg/mL of MBP to 1 mg/mL for later use. Appropriate embodiments were added into the well of the 384-well plate, 10 μl […] ATP was evenly mixed with 1 μl 1 mg/mL MB P, the mixed solution was added to the well, and 2 μL […] RIP1 kinase was added to the hole, and then incubated at room temperature for 1 h. Subsequently, 5 μL ADP-Glo reagent was added to each well and incubated at room temperature for 40 min. Then, 10 μL ADP-Glo detection reagent was added to each well and incubated at room temperature for 30 min. Finally, the RLU value (relative light unit) of each well was measured by ATP fluorometer, and each sample was repeated twice. Inhibition rate=(RLU value of blank group−RLU value of drug administration group)/RLU value of blank group×100%.

[2] = 2.5 mg/kg and 5 mg/kg bid, 48 h after ischemia/reperfusion

Sequence of RIPK1 kinase (Q13546 whole entry): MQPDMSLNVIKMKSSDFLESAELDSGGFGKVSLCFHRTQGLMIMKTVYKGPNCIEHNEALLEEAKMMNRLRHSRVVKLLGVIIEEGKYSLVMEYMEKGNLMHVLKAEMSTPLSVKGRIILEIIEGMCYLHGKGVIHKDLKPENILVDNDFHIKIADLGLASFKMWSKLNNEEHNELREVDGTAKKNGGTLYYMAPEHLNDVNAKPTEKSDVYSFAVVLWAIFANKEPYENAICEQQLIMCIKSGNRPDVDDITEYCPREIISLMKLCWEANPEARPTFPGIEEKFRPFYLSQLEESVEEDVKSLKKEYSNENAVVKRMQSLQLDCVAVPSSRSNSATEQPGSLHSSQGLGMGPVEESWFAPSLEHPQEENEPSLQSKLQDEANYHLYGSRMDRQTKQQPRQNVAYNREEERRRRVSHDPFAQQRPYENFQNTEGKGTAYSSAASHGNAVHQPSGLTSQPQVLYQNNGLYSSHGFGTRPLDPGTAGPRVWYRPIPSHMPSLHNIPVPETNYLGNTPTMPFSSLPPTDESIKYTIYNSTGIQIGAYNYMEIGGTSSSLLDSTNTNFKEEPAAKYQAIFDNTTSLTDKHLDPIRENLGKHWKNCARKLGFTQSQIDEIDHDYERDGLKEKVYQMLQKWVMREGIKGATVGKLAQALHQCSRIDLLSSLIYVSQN

Compound | EC50 (U937 cells) | nerve injury score [1, 2] | water content in the ischemic side [1, 2] | infarct volume ([1]; 2.5 mg/kg and 5 mg/kg bid, 48 h after ischemia/reperfusion, TTC staining) | protective effect on cerebral ischemia injury compared with edaravone ([1]; 5 mg/kg bid vs positive control edaravone 5 mg/kg QD) | IC50 (RIPK1 kinase) | inhibition at 10 µM (RIPK1 kinase)
O=C(c1ccccc1)N1CCC2(CC1)CCN(Cc1ccccc1F)C2=O [Compound 31, 8-benzoyl-2-(2-fluorobenzyl)-2,8-diazaspiro[4.5]decan-1-one] | 1050 nM | significantly reduce | significantly reduce | significantly reduce | stronger protective effect | 186 nM | > 50%
O=C(c1ccccc1)N1CCC2(CC1)CCN(Cc1cc(F)ccc1F)C2=O [Compound 34, 8-benzoyl-2-(2,5-difluorobenzyl)-2,8-diazaspiro[4.5]decan-1-one] | 1340 nM | – | – | – | – | 693 nM | > 50%
O=C(c1cnco1)N1CCC2(CC1)CCN(Cc1cc(F)ccc1F)C2=O [Compound 42, 2-(2,5-difluorobenzyl)-8-(oxazole-5-carbonyl)-2,8-diazaspiro[4.5]decan-1-one] | 1650 nM | – | – | – | – | 1040 nM | > 50%
O=C(c1ccc2cc[nH]c2c1)N1CCC2(CC1)CCN(Cc1ccccc1F)C2=O [Compound 44, 2-(2-fluorobenzyl)-8-(1H-indole-6-carbonyl)-2,8-diazaspiro[4.5]decan-1-one] | 161 nM | – | – | – | – | 186 nM | > 50%
O=C(c1ccc2cc[nH]c2c1)N1CCC2(CC1)CCN(Cc1cc(F)ccc1F)C2=O [Compound 46, 2-(2,5-difluorobenzyl)-8-(1H-indole-6-carbonyl)-2,8-diazaspiro[4.5]decan-1-one] | 1200 nM | – | – | – | – | 624 nM | > 50%
Cn1ccc2ccc(C(=O)N3CCC4(CC3)CCN(Cc3cc(F)ccc3F)C4=O)cc21 [Compound 49, 2-(2,5-difluorobenzyl)-8-(1-methyl-1H-indole-6-carbonyl)-2,8-diazaspiro[4.5]decan-1-one] | 1110 nM | – | – | – | – | 92 nM | > 50%
Cn1ccc2ccc(C(=O)N3CCC4(CC3)CCN(Cc3ccccc3F)C4=O)cc21 [Compound 50, 2-(2-fluorobenzyl)-8-(1-methyl-1H-indole-6-carbonyl)-2,8-diazaspiro decan-1-one] | 1560 nM | – | – | – | – | 102 nM | > 50%
O=C(c1ccccc1)N1CCC2(CCCN(Cc3ccccc3)C2=O)CC1 [Compound 74, 9-benzoyl-2-benzyl-2,9-diazaspiro[5.5]undecan-1-one] | – | – | – | – | – | – | > 50%
O=C(c1cscn1)N1CCC2(CC1)CCN(Cc1cc(F)ccc1F)C2=O [Compound 75, 2-(2,5-difluorobenzyl)-8-(thiazole-4-carbonyl)-2,8-diazaspiro [4.5]decan-1-one] | – | – | – | – | – | – | > 50%
O=C(c1ccc2ccoc2c1)N1CCC2(CC1)CCN(Cc1cc(F)ccc1F)C2=O [Compound 76, 8-(benzofuran-6-carbonyl)-2-(2,5-difluorobenzyl)-2,8-diazaspiro [4.5]decan-1-one] | – | – | – | – | – | – | > 50%
COc1cccc(C(=O)N2CCC3(CC2)CCN(Cc2cc(F)ccc2F)C3=O)c1 [Compound 77, 2-(2,5-difluorobenzyl)-8-(3-methoxybenzoyl)-2,8-diazaspiro[4.5]decan-1-one] | – | – | – | – | – | – | > 50%
CN1C(=O)C(Cc2c[nH]c3ccccc23)NC1=S (stereo not drawn) [Nec-1, reference compound] | – | – | – | – | – | 1140 nM | –

Reference: US20250129073A1, “INHIBITOR OF RECEPTOR-INTERACTING PROTEIN KINASE 1, AND PREPARATION METHOD AND USE THEREFOR” (CHINA PHARMACEUTICAL UNIVERSITY, priority 2021, published 2025)
